# Assay results taken from patent publication US20230340498A1, “COMPOSITIONS AND METHODS FOR INDUCIBLE ALTERNATIVE SPLICING REGULATION OF GENE EXPRESSION” (The Children's Hospital of Philadelphia, priority 2020, published 2023).
# Legend:
# HEK293 cells = experiment: PCR validation of LMI070-induced novel exons with primers binding the flanking exons; assay type: cell-based, Human; settings: top 5 candidate genes; cDNA from HEK293 cells treated with LMI070 vs DMSO
# Description: RNA extraction, RT-PCR, and Splicing assays. Total RNA was extracted using Trizol (Life Technologies) according to the manufacturer’s protocol, with the exception of 1 µL Glycoblue (Life Technologies) in addition to the aqueous phase on the isopropanol precipitation step and a single wash with cold 70% ethanol. To determine HTT expression levels after transfection, RNA samples were quantified by spectrophotometry and subsequently cDNAs generated from […] of total RNA with random hexamers (TaqMan RT reagents, Applied Biosystems). […] Relative HTT gene expression was determined using the ddCt method. […] Splicing was determined by PCR using the Phusion High-Fidelity polymerase (Thermofisher) and PCR products separated on a 2.5% agarose gel pre-stained with EtBr and spliced-in and spliced-out band densitometry performed using with the ChemiDoc Imaging System (BioRad) and Image Lab analysis software. Splicing induction from mouse tissues was determined using two custom TaqMan assays designed to determine total or LMI070-spliced in mRNA transcripts. The percentage of induction was determined by dividing the average Ct novel exon and average Ct Total, relative to control animals injected with AAV virus plus vehicle. […]
# HTT = experiment: X^on-SaCas9 regulated HTT exon 1 editing in HEK293 cells; assay type: cell-based, Human
# Description: Cell culture, transfection, and LMI070/RG7800 treatment. Human embryonic kidney (HEK293) cells (obtained from CHOP Research Vector Core stock) were maintained in DMEM media containing 10% Fetal Bovine Serum (FBS), 1% L-Glutamine and 1% penicillin/streptomycin at 37° C. with 5% CO2. Cells were cultured in 24 well plates and transfected at 80-90% confluence using Lipofectamine 2000 transfection reagent, according to the manufacturer’s protocol. For all experiments, 4 hours after plasmid transfection, cells were treated with LMI070 (MedChemExpress, HY-19620, suspended in DMSO) or RG7800 (MedChemExpress, HY-101792A, suspended in H2O) at the indicated concentrations. Cells were tested for mycoplasma by Research Vector Core. None of the cells used in the study were listed in ICLAC database of commonly misidentified cell lines.
# RNA extraction, RT-PCR, and Splicing assays. Total RNA was extracted using Trizol (Life Technologies) according to the manufacturer’s protocol, with the exception of 1 µL Glycoblue (Life Technologies) in addition to the aqueous phase on the isopropanol precipitation step and a single wash with cold 70% ethanol. To determine HTT expression levels after transfection, RNA samples were quantified by spectrophotometry and subsequently cDNAs generated from […] of total RNA with random hexamers (TaqMan RT reagents, Applied Biosystems). To determine human HTT expression levels in HEK293 cells, we used TaqMan probes for human HTT and glyceraldehyde 3-phosphate dehydrogenase (GAPDH) mRNAs obtained from Applied Biosystems. Relative HTT gene expression was determined using the ddCt method. […] Splicing was determined by PCR using the Phusion High-Fidelity polymerase (Thermofisher) and PCR products separated on a 2.5% agarose gel pre-stained with EtBr and spliced-in and spliced-out band densitometry performed using with the ChemiDoc Imaging System (BioRad) and Image Lab analysis software. Splicing induction from mouse tissues was determined using two custom TaqMan assays designed to determine total or LMI070-spliced in mRNA transcripts. The percentage of induction was determined by dividing the average Ct novel exon and average Ct Total, relative to control animals injected with AAV virus plus vehicle.
# Western Blots. HEK293 cells were rinsed and lysed with Passive Lysis Buffer (PBL, Promega), protein concentrations determined using the DC protein assay (Bio-Rad), and 10-20 µg of protein loaded on a 3%-8% NuPAGE Tris-Acetate Gel in tris-acetate buffer (Novex Life Technologies) or a 4-12% NuPAGE TrisBis NuPAGE gels in MES buffer (Novex Life Technologies) to determine HTT, SaCas9, or eGFP protein levels, respectively, with β-catenin as loading control. […]
structure (smiles),measurement,setting,value
"CC1(C)CC(Oc2ccc(-c3ccc(-c4cn[nH]c4)cc3O)nn2)CC(C)(C)N1 [LMI070, 5-(1H-Pyrazol-4-yl)-2-(6-((2,2,6,6-tetramethylpiperidin-4-yl)oxy)pyridazin-3-yl)phenol]",amplification of the novel exons by PCR,HEK293 cells,Robust amplification
same,SaCas9 expression from X^on switch,"HTT; HEK293 cells, varying doses of LMI070, western blot 24 h",clear dose response
same,HTT exon 1 editing versus constitutively expressed SaCas9,"HTT; X^on-SaCas9 plus gRNAs, 100 nM LMI070",equivalent editing
same,reduction of HTT transcripts,"HTT; X^on-SaCas9 plus gRNAs, upon LMI070 treatment, RT-qPCR",50%
same,HTT protein levels,"HTT; X^on-SaCas9 plus gRNAs, upon LMI070 treatment, western blot",similarly reduced
